Experimental data: paper PMC4014597 (PLoS ONE, 2014)

How the values were obtained:
RAJI cells = assay: Cell viability by trypan blue exclusion, RAJI; type: cell-based, human; conditions: 48 h; for IC50: Homo sapiens, Raji, read-out: IC50 (mean ± SD) cell viability RAJI
Description: U-937 and RAJI cell lines were purchased from Deutsche Sammlung für Mikroorganismen und Zellkulturen (DSZM). Cells were maintained in RPMI 1640 (Lonza) supplemented with 10% fetal calf serum (Lonza) and 1% antibiotic–antimycotic (Lonza). Cells were treated with compounds at the indicated concentrations in exponential growth phase. Proliferation and viability were assessed by trypan blue exclusion analysis at the indicated time points.

[1] = biological target: T1, human G9a-like protein (GLP) (Homo sapiens, UniProt Q9H9B1); assay: GLP assay (histone methylation inhibition); type: biochemical; conditions: 8 μM inhibitor; read-out: Percent of GLP inhibition
T1 construct: catalytic SET domain (residues 734-1235; pXC758) were purified as described; made in house
T1 sequence (Q9H9B1 765-1266): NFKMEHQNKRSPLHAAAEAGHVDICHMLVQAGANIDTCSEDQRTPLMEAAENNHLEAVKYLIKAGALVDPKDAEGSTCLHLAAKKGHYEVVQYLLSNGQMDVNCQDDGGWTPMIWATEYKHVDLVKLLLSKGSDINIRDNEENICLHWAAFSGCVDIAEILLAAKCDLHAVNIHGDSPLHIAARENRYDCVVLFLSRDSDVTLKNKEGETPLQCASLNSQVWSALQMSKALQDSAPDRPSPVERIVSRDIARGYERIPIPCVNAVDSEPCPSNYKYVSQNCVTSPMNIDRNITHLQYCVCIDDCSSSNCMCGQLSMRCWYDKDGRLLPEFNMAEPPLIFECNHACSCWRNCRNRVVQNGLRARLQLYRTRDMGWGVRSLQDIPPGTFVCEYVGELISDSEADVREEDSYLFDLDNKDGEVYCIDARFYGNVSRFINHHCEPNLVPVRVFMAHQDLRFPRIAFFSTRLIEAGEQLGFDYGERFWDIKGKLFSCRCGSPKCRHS
Description: GLP Assay. Recombinant human G9a-like protein (GLP) C-terminal fragment containing both the ankyrin repeats and catalytic SET domain (residues 734-1235; pXC758) were purified as described. For histone methylation inhibition, the assay was performed in 20 μL reaction containing 4.6 mM [methyl-^3H]-AdoMet, 50 μg/mL histone from calf thymus (SIGMA), 10 μg/mL (0.17 μM) GLP, 100 mM KCl, 5 mM (DTT) and 50 mM Tris-HCl pH 8.5. GLP was pre-incubated with AdoMet and 8 µM inhibitors for 5 min at 30 °C before the addition of the histone substrate. After incubation (5 min), the reaction was terminated by the addition of 20% trichloroacetic acid (TCA, Fisher Scientific). The reaction mixture was spotted on GF/A paper circles (Whatman), washed three times with 3 mL of 10% TCA and once with 3 mL of ethanol. The dried circles were subjected to liquid-scintillation counting with Cytoscint scintillant.

Row | Structure (SMILES) | IC50 (RAJI cells) [µM] | inhibition at 8 µM [1] [%] | melting point [°C] | antiproliferative potency compared to SGI-1027, fold more potent (RAJI cells; RAJI) [fold]
1 | CN1CCCN(c2nc(NC3CCN(Cc4ccccc4)CC3)c3ccccc3n2)CC1 [Compound 4] | 21.1 ± 2.5 | 0 | – | –
2 | c1ccc(CN2CCC(Nc3nc(N4CCCC4)nc4ccccc34)CC2)cc1 [Compound 10, N-(1-benzylpiperidin-4-yl)-2-(pyrrolidin-1-yl)quinazolin-4-amine] | 18.7 ± 4.3 | 9.2 | 112 to 115 | –
3 | c1ccc(CN2CCC(Nc3nc(N4CCN(c5ccccn5)CC4)nc4ccccc34)CC2)cc1 [Compound 13] | 19.7 ± 1.4 | 3.3 | – | –
4 | c1ccc(CN2CCC(Nc3nc(N4CCN(c5ccccc5)CC4)nc4ccccc34)CC2)cc1 [Compound 14, N-(1-benzylpiperidin-4-yl)-2-(4-phenylpiperazin-1-yl)quinazolin-4-amine] | 3.4 ± 0.3 | 10 | – | 3
